Measurements reported in patent US20020177621A1, “Antifungal fragrance composition” (priority 2000, published 2002).
Where “and” joins values, the source holds several entries; their conditions need not be identical. Equal entries are not always repeated. Entries after “also recorded” stand apart in the source; their conditions may differ.

Tests used:
Assay type in all cases: cell-based
[1] = system: Cladosporium cladosporioides IFO 6348 (Cc-1); assay: Fragrant vapor antifungal activity (impregnated paper disc on cover of inverted agar plate); conditions: 72 hours at 27° C.; for IZ: Diameter of growth inhibition zone: 20 μl fragrance (or 40 μl of 50% ethanol solution) on disc, >85 = growth inhibited over entire plate; for Growth: Growth status outside the inhibition zone: 20 μl fragrance on disc, compared with control
Protocol: (§1) Physiological saline containing 0.05% Tween-80 was added to a slant on which the test organism grew well, and a spore suspension was produced at 1×10^6 CFU (Colony Forming Units)/ml in accordance with ordinary methods. Potato dextrose agar (PDA: Nissui Pharmaceutical) was used for the medium. To begin with, 10 ml of sterile PDA was pipetted into a Petri dish and after it solidified, another 6 ml of PDA containing 1% of the above described spore suspension was overlaid and solidified to prepare the test agar plate. For the fragrance sample, if the sample is in the form of liquid at ordinary temperatures, 20 μl of liquid was directly impregnated into a paper disc (Advantech, diameter: 8 mm, thick material), while a 50% by weight ethanol solution was prepared for crystals or powder, and 40 μl of that solution was then impregnated into the paper disc.
(§2) The test agar plate was placed inversely, and the paper disc impregnated with the fragrance sample was placed in the center of the cover of the agar plate, followed by incubating for 72 hours at 27° C. Evaluation was made based on the diameter (mm) of the mold growth inhibition zone. When mold growth was inhibited over the entire surface of the agar plate, the diameter of the growth inhibition zone was reported as >85 mm. At locations where mold grew outside the inhibition zone, the diameter of the spore formation inhibition zone and the degree of growth were recorded by comparing with a control. The molds used in the test are shown in Table 1, wherein these molds consist of mold species that are isolated at high frequencies from rooms and bath rooms.
(§3) The amount of blended fragrance added to the paper discs was 20 μl each, and only the diameter of the inhibition zone (mm) is indicated for the results.

[2] = system: Aspergillus niger IFO 9455 (An-1); assay: as above; conditions: 72 hours at 27° C.; for IZ: Diameter of growth inhibition zone: 20 μl fragrance (or 40 μl of 50% ethanol solution) on disc, >85 = growth inhibited over entire plate; for Growth: Growth status outside the inhibition zone / SI: Diameter of spore formation inhibition zone: 20 μl fragrance on disc; for Growth: Growth status outside the inhibition zone: compared with control
Protocol: as §1, §2, §3

[3] = system: Aureobasidium pullulans IFO 6353 (Ap-1); assay: as above; conditions: 72 hours at 27° C.; for IZ: Diameter of growth inhibition zone: 20 μl fragrance (or 40 μl of 50% ethanol solution) on disc, >85 = growth inhibited over entire plate; for Growth: Growth status outside the inhibition zone / SI: Diameter of spore formation inhibition zone: 20 μl fragrance on disc; for Growth: Growth status outside the inhibition zone: compared with control
Protocol: as §1, §2, §3

An-1 (Aspergillus niger) = assay: Confirmation of synergistic action of two fragrances (vapor, paper disc); conditions: for IZ (diameter of growth inhibition zone) / Growth (growth status outside the inhibition zone) / SI (diameter of spore formation inhibition zone): 72 hours at 27° C.; for IZ (diameter of growth inhibition zone): sample amount on disc: citral 2 μl, benzaldehyde 10 μl, dimethyl tetrahydrobenzaldehyde 20 μl, geraniol 10 μl, octyl aldehyde 20 μl, 9-decen-1-ol 0.5 μl, trans-2-undecenal 3 μl, phenylacetaldehyde 5 μl, A + B = both amounts on one disc; for Growth (growth status outside the inhibition zone): sample amounts as in Table 3 (citral 2 μl, benzaldehyde 10 μl, dimethyl tetrahydrobenzaldehyde 20 μl, geraniol 10 μl, octyl aldehyde 20 μl, 9-decen-1-ol 0.5 μl, trans-2-undecenal 3 μl, phenylacetaldehyde 5 μl; A + B = both); for SI (diameter of spore formation inhibition zone): sample amounts as in Table 3 (citral 2 μl, benzaldehyde 10 μl, dimethyl tetrahydrobenzaldehyde 20 μl, geraniol 10 μl, octyl aldehyde 20 μl, trans-2-undecenal 3 μl, phenylacetaldehyde 5 μl; A + B = both); for Synergistic effect: second fragrance that shows synergistic action with the fragrance component / Additive effect: second fragrance that shows additive action with the fragrance component / Antagonistic effect: second fragrance that shows antagonistic action with the fragrance component: value = combination partner; for Synergistic effect: second fragrance that shows synergistic action with the fragrance component: combined IZ 20 mm or more larger than sum of single IZ; for Additive effect: second fragrance that shows additive action with the fragrance component: combined IZ intermediate; for Antagonistic effect: second fragrance that shows antagonistic action with the fragrance component: combined IZ 20 mm or more smaller than sum of single IZ
Protocol: An agar plate prepared according to the method of Example 1 was used while using An-1 (Aspergillus niger) for the test fungi. […] 10 μl of the ethanol containing the Table 3 prescribed amount of the fragrance was impregnated into a paper disc. The test agar plate was placed inversely, and the paper disc impregnated with each fragrance alone and a paper disc simultaneously impregnated with two types of fragrances were placed in the center of the cover, followed by incubating for 72 hours at 27° C. and measuring the diameters of the resulting growth inhibition zones.
The results obtained as in Example 2 with other combinations are shown in Tables 4 through 7 as combination examples of respective synergistic, additive and antagonistic actions for each fragrant chemical product (a). […] It should be noted that in order to make the table smaller, combinations that have already been listed once are not listed in other columns of the tables.

Structure (SMILES)	IZ: Diameter of growth inhibition zone [1] [mm]	Growth: Growth status outside the inhibition zone [1]	IZ: Diameter of growth inhibition zone [2] [mm]	Growth: Growth status outside the inhibition zone [2]	IZ: Diameter of growth inhibition zone [3] [mm]	Growth: Growth status outside the inhibition zone [3]	IZ (diameter of growth inhibition zone) (An-1 (Aspergillus niger)) [mm]	Growth (growth status outside the inhibition zone) (An-1 (Aspergillus niger))	SI (diameter of spore formation inhibition zone) (An-1 (Aspergillus niger)) [mm]	Synergistic effect: second fragrance that shows synergistic action with the fragrance component (An-1 (Aspergillus niger))	Additive effect: second fragrance that shows additive action with the fragrance component (An-1 (Aspergillus niger))	SI: Diameter of spore formation inhibition zone [2] [mm]	SI: Diameter of spore formation inhibition zone [3] [mm]	Antagonistic effect: second fragrance that shows antagonistic action with the fragrance component (An-1 (Aspergillus niger))
CC1=CC(C)C(C=O)CC1 (stereo not shown) [Dimethyl tetrahydrobenzaldehyde, dimethyl tetrahydrobenzaldehyde]	>85	sparse	0	weak	>85	sparse	0	weak	>85	Cumin aldehyde; also recorded: Geraniol	Thymol, and 1-Decanol	–	–	–
C=CCc1ccc(O)c(OC)c1 [Eugenol]	70	weak	40	good	40	good	–	–	–	–	Thymol	60	60	Phenylacetaldehyde,; also recorded: Anisaldehyde,
CCCCCCCCCCO [Example 1-Decanol, 1-Decanol]	60	weak	80	weak	40	slight	–	–	–	–	Thymol and 1-Nonanal and Methyl salicylate, and Phenylacetaldehyde, and Eugenol	–	–	–
C=CCCCCCCCCO [Example 9-Decen-1-ol, 9-Decen-1-ol]	>85	none	>85	none	65	weak	0	weak	–	1-Decanol	Thymol	–	–	–
O=Cc1ccco1 [Furfural]	>85	none	>85	none	>85	none	–	–	–	Citronellal; also recorded: hexenal, Octyl aldehyde,; also recorded: Trans-2-undecenal,; also recorded: Cumin aldehyde,; also recorded: Geraniol; also recorded: Citronellol; also recorded: Thymol	–	–	–	–
CC(C)=CCC/C(C)=C/CO [Geraniol]	70	weak	45	good	30	good	30	weak	45	1-Nonanal	Thymol,	65	45	Citronellol,; also recorded: Eugenol
CCCCCCCC=O [Octyl aldehyde]	>85	none	10	weak	>85	none	10	weak	35	Cumin aldehyde	1-Decanol and Thymol, and Anisaldehyde, and Geraniol,	>85	–	Citronellol
O=Cc1ccccc1O [Salicylic aldehyde]	>85	none	>85	none	>85	none	–	–	–	Cumin aldehyde and Thymol and 1-Decanol and Citronellol	–	–	–	–
CCC/C=C/C=O [Trans-2-hexenal]	>85	none	>85	none	>85	none	–	–	–	–	Citral DMA, and 1-Nonanal, and 9-Decen-1-ol	–	–	–
CCCCCCCC/C=C/C=O [Trans-2-undecenal]	>85	none	>85	none	>85	none	30	slight	>85	Citral DMA; also recorded: Citral DEA; also recorded: Cumin aldehyde; also recorded: Geraniol; also recorded: Citronellol	–	–	–	Eugenol
